Data on 44 compounds can be found in patent publication US10688093B2, “Methods, compositions, and uses of novel Fyn kinase inhibitors” (priority 2015, dated 2020).

pIC50: −log10 of the molar value.

The target in this experiment is full-length recombinant human FYN A (Homo sapiens (Human), UniProt P06241). Kind of experiment: ADP-Glo Kinase Assay of FYN kinase inhibition. The experiment is classed as biochemical. The procedure, abridged: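 ADP-Glo read-out of peptide phosphorylation after 90 min RT with 12.5 pmol ATP and 100 pg 12-mer substrate. Enzyme was N-GST full-length human FYN A from insect cells, 3 pg, pre-incubated 30 min with compound, 10 points from 10 μM top, 3-fold steps; IC50 from curve.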
Sequence of full-length recombinant human FYN A (P06241 whole entry): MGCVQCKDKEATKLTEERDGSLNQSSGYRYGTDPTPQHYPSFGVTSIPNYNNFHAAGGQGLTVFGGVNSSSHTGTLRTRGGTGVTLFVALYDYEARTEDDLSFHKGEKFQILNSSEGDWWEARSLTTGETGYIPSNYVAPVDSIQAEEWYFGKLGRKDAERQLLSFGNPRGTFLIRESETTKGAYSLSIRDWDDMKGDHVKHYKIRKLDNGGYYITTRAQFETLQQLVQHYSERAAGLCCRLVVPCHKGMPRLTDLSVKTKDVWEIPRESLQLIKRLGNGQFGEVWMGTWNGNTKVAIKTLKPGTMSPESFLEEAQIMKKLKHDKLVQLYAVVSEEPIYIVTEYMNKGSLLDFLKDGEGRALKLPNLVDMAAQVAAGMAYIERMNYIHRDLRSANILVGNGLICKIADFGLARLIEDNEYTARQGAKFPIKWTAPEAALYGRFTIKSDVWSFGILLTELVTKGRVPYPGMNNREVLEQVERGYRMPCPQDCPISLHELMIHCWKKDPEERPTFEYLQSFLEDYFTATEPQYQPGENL
(In general: In ADP-Glo the light output rises with the ADP produced.)

The mark [1] stands for this setting: secondary screen, re-synthesized and expanded compounds.
Where [2] appears, read: primary screen, initial compounds.

As a reminder, the pIC50 is the negative decadic logarithm of the IC50, by convention in mol/L. As for `CC(=O)c1cccc(-c2cnc3ccc(-c4cccc(CO)c4)nn23)c1` [BF000726471, 1-[3-[6-[3-(hydroxy-methyl)-phenyl]-imidazo[1,2-b]pyridazin-3-yl]phenyl]-ethanone], the pIC50 under setting [1] was 6.54.

Consider `COc1cc(-c2cnc3ccc(-c4ccc(CO)cc4)nn23)ccc1O` [BF000726486, 4-[6-[4-(hydroxy-methyl)-phenyl]-imidazo[1,2-b]pyridazin-3-yl]-2-methoxy-phenol], for which, under setting [1], the pIC50 is 7.21.

As for `COc1cc(-c2cnc3ccc(-c4cccc(CO)c4)nn23)ccc1O` [BF000726487, 4-[6-[3-(hydroxy-methyl)-phenyl]-imidazo[1,2-b]pyridazin-3-yl]-2-methoxy-phenol], the negative-log IC50 (pIC50) under setting [1] is 7.20.

For the compound `COc1cncc(-c2cnc3sc(NC4CCC(O)CC4)nn23)c1` (centres unmarked) [BF000802724, 4-[[5-(5-methoxy-3-pyridyl)-imidazo[2,1-b][1,3,4]-thiadiazol-2-yl]amino]-cyclohexanol], under setting [1], the pIC50 was 6.52.

With `CN(C)CCCNC(=O)c1ccc(-c2cn3c(-c4ccc(Oc5ccccc5)cc4)cnc3cn2)cc1` [BF000816927, N-[3-(dimethyl-amino)-propyl]-4-[3-(4-phenoxy-phenyl)imidazo[1,2-a]pyrazin-6-yl]benzamide], under setting [1], the negative logarithm of the IC50 (pIC50) is 6.61.

Consider `CC(C)[C@@H](CO)Nc1ccc2ncc(-c3ccncc3)n2n1` [BF000817097, (2S)-3-methyl-2-[[3-(4-pyridyl)-imidazo[1,2-b]pyridazin-6-yl]amino]-butan-1-ol], for which the pIC50 under setting [1] was 6.20.

As to `CC(=O)c1cccc(-c2cnc3ccc(NCCCO)nn23)c1` [BF000817098, 1-[3-[6-(3-hydroxy-propyl-amino)-imdazo[1,2-b]pyridazin-3-yl]phenyl]-ethanone], under setting [1], the negative logarithm of the IC50 (pIC50) is 6.19.

Take `c1cc(-c2cnc3ccc(NC4CCOCC4)nn23)ccn1` [BF000817099, 3-(4-pyridyl)-N-tetrahydro-pyran-4-yl-imidazo[1,2-b]pyridazin-6-amine]: under setting [1], the pIC50 is 6.57.

Regarding `CC(=O)Nc1cccc(-c2cnc3ccc(-c4ccncc4)nn23)c1` [BF000817142, N-[3-[6-(4-pyridyl)-imidazo[1,2-b]pyridazin-3-yl]phenyl]-acetamide], under setting [1], the pIC50 was 6.13.

As to `COc1cc(-c2cnc3ccc(-c4ccncc4)nn23)ccc1O` [BF000817169, 2-methoxy-4-[6-(4-pyridyl)-imidazo[1,2-b]pyridazin-3-yl]phenol], the pIC50 under setting [1] was 7.10.

Consider `c1ccc(CNc2ccc3ncc(-c4ccncc4)n3n2)nc1` [BF000817170, 3-(4-pyridyl)-N-(2-pyridyl-methyl)-imidazo[1,2-b]pyridazin-6-amine], for which the pIC50 under setting [1] is 6.77.

For the compound `COc1cc(-c2cnc(N)c(-c3cc(OC)c(OC)c(OC)c3)c2)cc(OC)c1OC` [BF000817175, 3,5-bis(3,4,5-trimethoxy-phenyl)-pyridin-2-amine], under setting [1], the pIC50 was 7.07.

Consider `COc1cc(-c2cc(-c3ccc(N4CCN(C(C)C)CC4)cc3)cnc2N)ccc1O` [BF000817185], for which the pIC50 under setting [1] is 7.11.

Take `COc1cc(-c2ccc3ncc(-c4ccc(O)c(OC)c4)n3n2)ccc1O` [BF000817186, 4-[3-(4-hydroxy-3-methoxy-phenyl)-imidazo[1,2-b]pyridazin-6-yl]-2-methoxy-phenol]: the negative logarithm of the IC50 (pIC50) under setting [1] is 7.53.

Take `OCc1cccc(-c2ccc3ncc(-c4cccc(CO)c4)n3n2)c1` [BF000817188, [3-[3-[3-(hydroxy-methyl)-phenyl]-imidazo[1,2-b]pyridazin-6-yl]phenyl]-methanol]: under setting [1], the pIC50 is 6.08.

For `COc1ccc(-c2cnc3sc(NCC4CCOCC4)nn23)cc1OC` [BF000817208, 5-(3,4-dimethoxy-phenyl)-N-(tetra-hydropyran-4-ylmethyl)-imidazo[2,1-b][1,3,4]-thiadiazol-2-amine], the negative logarithm of the IC50 (pIC50) under setting [1] was 5.99.

With `CC(=O)Nc1cccc(-c2cnc3ccc(-c4cccc(CO)c4)nn23)c1` [BF000817329, N-[3-[6-[3-(hydroxy-methyl)-phenyl]-imidazo[1,2-b]pyridazin-3-yl]phenyl]-acetamide], the pIC50 under setting [1] is 6.36.

Turning to `COc1cc(-c2cc(-c3ccc(N4CCOCC4)cc3)cnc2N)ccc1O` [BF000817413, 4-[2-amino-5-(4-morpholino-phenyl)-3-pyridyl]-2-methoxy-phenol], under setting [1], the pIC50 is 6.67.

For `COc1ccc(-c2cnc(N)c(-c3ccc(N4CCN(C)CC4)cc3)c2)cc1O` [BF000817418, 5-[6-amino-5-[4-(4-methyl-piperazin-1-yl)phenyl]-3-pyridyl]-2-methoxy-phenol], under setting [1], the negative-log IC50 (pIC50) is 5.02.

With `c1csc(-c2cn3c(-c4ccncc4)cnc3cn2)c1` [Compound 198, 3-(4-pyridyl)-6-(2-thienyl)imidazo [1,2-a]pyrazine], under setting [2], the pIC50 is 5.25.

On to `Oc1ccc(-c2cn3c(-c4ccsc4)cnc3cn2)cc1` [Compound 199, 4-[3-(3-thienyl)imidazo [1,2-a]pyrazin-6-yl]phenol], for which the pIC50 under setting [2] is 5.57.

`c1csc(-c2cn3c(-c4ccsc4)cnc3cn2)c1` [Compound 200, 6-(2-thienyl)-3-(3-thienyl)imidazo [1,2-a]pyrazine]: the pIC50 under setting [2] is 5.65.

Consider `CC(=O)Nc1cccc(-c2cn3c(-c4ccsc4)cnc3cn2)c1` [Compound 201, N-[3-[3-(3-thienyl)imidazo [1,2-a]pyrazin-6-yl]phenyl] acetamide], for which the negative-log IC50 (pIC50) under setting [2] is 5.63.

On to `CS(=O)(=O)Nc1cccc(-c2cn3c(-c4ccsc4)cnc3cn2)c1` [Compound 202, N-[3-[3-(3-thienyl)imidazo [1,2-a]pyrazin-6-yl]phenyl] methane-sulfonamide], for which the pIC50 under setting [2] was 5.48.

For `c1coc(-c2cn3c(-c4ccsc4)cnc3cn2)c1` [Compound 203, 6-(2-furyl)-3-(3-thienyl)imidazo [1,2-a]pyrazine], the negative-log IC50 (pIC50) under setting [2] is 5.20.

As for `Oc1cccc(-c2cnc3cnc(-c4ccccc4)cn23)c1` [Compound 204, 3-(6-phenylimidazo [1,2-a]pyrazin-3-yl)phenol], the pIC50 under setting [2] is 5.18.

On to `NC(=O)c1cccc(-c2cn3c(-c4cccc(O)c4)cnc3cn2)c1` [Compound 205, 3-[3-(3-hydroxyphenyl)imidazo[1,2-a]pyrazin-6-yl]benzamide], for which the negative-log IC50 (pIC50) under setting [2] was 5.80.

As for `Oc1ccc(-c2cnc3cnc(-c4cccnc4)cn23)cc1` [Compound 206, 4-[6-(3-pyridyl)imidazo [1,2-a]pyrazin-3-yl]phenol], the pIC50 under setting [2] is 5.56.

As to `OCc1ccc(-c2cn3c(-c4ccc(Oc5ccccc5)cc4)cnc3cn2)cc1` [Compound 207], under setting [2], the pIC50 was 5.33.

On to `Oc1ccc(-c2cnc3cnc(-c4ccc(Cl)cc4)cn23)cc1` [Compound 208, 4-[6-(4-chlorophenyl)imidazo[1,2-a]pyrazin-3-yl]phenol], for which, under setting [2], the pIC50 was 5.20.

With `Oc1cccc(-c2cnc3cnc(-c4cccs4)cn23)c1` [Compound 209, 3-[6-(2-thienyl)imidazo [1,2-a]pyrazin-3-yl]phenol], the pIC50 under setting [2] was 5.56.

`Cn1cc(-c2cn3c(-c4ccc(Oc5ccccc5)cc4)cnc3cn2)cn1` [Compound 210, 6-(1-methylpyrazol-4-yl)-3-(4-phenoxyphenyl) imidazo[1,2-a]pyrazine]: the negative logarithm of the IC50 (pIC50) under setting [2] was 5.71.

For the compound `Oc1cccc(-c2cnc3cnc(-c4ccco4)cn23)c1` [Compound 211, 3-[6-(2-furyl)imidazo [1,2-a]pyrazin-3-yl]phenol], the negative logarithm of the IC50 (pIC50) under setting [2] was 5.21.

`COc1ccc(-c2cn3c(-c4ccc(O)cc4)cnc3cn2)cn1` [Compound 212, 4-[6-(6-methoxy-3-pyridyl)imidazo [1,2-a]pyrazin-3-yl]phenol]: the pIC50 under setting [2] was 5.70.

In the case of `OCc1ccc(-c2cn3c(-c4cccc(O)c4)cnc3cn2)cc1` [Compound 213, 3-[6-[4-(hydroxymethyl)phenyl]imidazo [1,2-a]pyrazin-3-yl]phenol], the negative-log IC50 (pIC50) under setting [2] was 5.47.

In the case of `Cn1cc(-c2cn3c(-c4cccc(O)c4)cnc3cn2)cn1` [Compound 214, 3-[6-(1-methylpyrazol-4-yl)imidazo[1,2-a]pyrazin-3-yl]phenol], the pIC50 under setting [2] is 5.56.

For the compound `Cn1cc(-c2cn3c(-c4ccc(O)cc4)cnc3cn2)cn1` [Compound 215, 4-[6-(1-methylpyrazol-4-yl)imidazo[1,2-a]pyrazin-3-yl]phenol], under setting [2], the pIC50 was 5.80.

For `CN1CCN(c2ccc(-c3cn4c(-c5ccc(Oc6ccccc6)cc5)cnc4cn3)cn2)CC1` [Compound 216, 6-[6-(4-methylpiperazin-1-yl)-3-pyridyl]-3-(4-phenoxyphenyl) imidazo[1,2-a]pyrazine], the pIC50 under setting [2] is 5.67.

For the compound `O=C(NCCO)c1cccc(-c2cn3c(-c4ccc(Oc5ccccc5)cc4)cnc3cn2)c1` [Compound 217, N-(2-hydroxyethyl)-3-[3-(4-phenoxyphenyl)imidazo[1,2-a]pyrazin-6-yl]benzamide], the pIC50 under setting [2] was 5.83.

For the compound `CN(C)CCNC(=O)c1ccc(-c2cn3c(-c4ccc(Oc5ccccc5)cc4)cnc3cn2)cc1` [Compound 218, N-(2-dimethylamino-ethyl)-4-[3-(4-phenoxyphenyl)imidazo[1,2-a]pyrazin-6-yl]benzamide], the negative-log IC50 (pIC50) under setting [2] was 6.78.

Consider `O=C(NCCO)c1ccc(-c2cn3c(-c4ccc(Oc5ccccc5)cc4)cnc3cn2)cc1` [Compound 219, N-(2-hydroxyethyl)-4-[3-(4-phenoxyphenyl)imidazo[1,2-a]pyrazin-6-yl]benzamide], for which the pIC50 under setting [2] is 6.21.

Regarding `CN(C)CCCNC(=O)c1ccc(-c2cn3c(-c4cccc(Cl)c4)cnc3cn2)cc1` [Compound 220, 4-[3-(3-chlorophenyl)imidazo[1,2-a]pyrazin-6-yl]-N-[3-(dimethylamino)propyl]benzamide], the negative logarithm of the IC50 (pIC50) under setting [2] was 5.07.

For the compound `Nc1ccc(-c2cn3c(-c4ccc(Oc5ccccc5)cc4)cnc3cn2)cn1` [Compound 221, 5-[3-(4-phenoxyphenyl)imidazo[1,2-a]pyrazin-6-yl]pyridin-2-amine], the negative-log IC50 (pIC50) under setting [2] is 5.76.

With `CN(C)CCCNC(=O)c1ccc(-c2cn3c(-c4ccsc4)cnc3cn2)cc1` [Compound 222, N-[3-(dimethylamino)propyl]-4-[3-(3-thienyl)imidazo [1,2-a]pyrazin-6-yl]benzamide], under setting [2], the negative-log IC50 (pIC50) was 5.41.
